Laboratory results as given in patent publication US9271978B2 (Zenith Epigenetics Corp., priority 2012, dated 2016).

Assays:
[1] = tested on: human AML MV-4-11 (CRL-9591) cells; assay: Inhibition of cell proliferation in MV4-11 cells; type: cell-based; parameters: key: Active: Compounds with an IC50 value less than 30 μM were deemed to be active.; Not Active: Compounds with an IC50 value less than 30 μM were deemed to be active; details: human AML MV-4-11 cells, 72 h; active = IC50 <30 μM
In short: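 Exponentially growing MV-4-11 cells (5×10^4/well) were treated immediately with two-fold dilutions of compound from 30 μM to 0.2 μM, in triplicate, for 72 h at 37° C, 5% CO2. Viability was measured by MTS absorbance at 490 nm after 3–4 h. Proliferation relative to DMSO after blank correction gave IC50.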

[2] = biological target: T1, second bromodomain of Brd2 (BRD2(2)) (Homo sapiens, UniProt P25440); assay: Inhibition of tetra-acetylated histone H4 binding to Brd2 bromodomain 2 (TR-FRET); parameters: key: Active: Compounds with an IC50 value less than 30 μM were deemed to be active.; Not Active: Compounds with an IC50 value less than 30 μM were deemed to be active; details: tetra-acetylated histone H4 peptide, active = IC50 <30 μM
T1 construct: made in house; host or cells: E. coli BL21 (DE3)
T1 sequence (P25440 344-453 limits assumed): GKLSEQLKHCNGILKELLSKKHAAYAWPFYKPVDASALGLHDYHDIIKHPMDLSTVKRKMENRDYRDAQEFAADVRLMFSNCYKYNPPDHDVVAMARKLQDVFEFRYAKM
In short: (§1)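 N-terminally His-tagged bromodomains (200 nM), expressed in E. coli, were incubated with biotinylated tetra-acetylated histone H4 peptide (25-50 nM), Eu-cryptate streptavidin and XL665 anti-His antibody in HEPES pH 7.4 buffer with KF, 0.2% DMSO, 2 h at room temperature. Inhibition read as decreased 665/620 nm TR-FRET; IC50 from dose-response curves.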

hIL-6 mRNA = assay: Inhibition of hIL-6 mRNA transcription in U937 cells; type: cell-based, human; parameters: key: Active: Compounds with an IC50 value less than 30 μM were deemed to be active.; Not Active: Compounds with an IC50 value less than 30 μM were deemed to be active; details: LPS stimulation, active = IC50 <30 μM
In short: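 U937 cells differentiated 3 days with 60 ng/mL PMA, pretreated 1 h with compound, then stimulated with 1 ug/mL E. coli LPS for 3 h at 37° C. hIL-6 mRNA quantified by one-step qRT-PCR, Ct normalized to internal control, expressed as fold induction relative to control.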

[3] = biological target: T2, Brd4 bromodomain 1 (BRD4(1)) (Homo sapiens, UniProt O60885); assay: Inhibition of tetra-acetylated histone H4 binding to Brd4 bromodomain 1 (TR-FRET); parameters: key: Active: Compounds with an IC50 value less than 30 μM were deemed to be active.; Not Active: Compounds with an IC50 value less than 30 μM were deemed to be active; details: tetra-acetylated histone H4 peptide, active = IC50 <30 μM
T2 construct: Illustrative results with the first bromodomain of Brd4; made in house; host or cells: E. coli BL21 (DE3)
In short: as §1

c-myc = assay: Inhibition of c-myc expression in MV4-11 cells (mRNA, real-time PCR); type: cell-based; parameters: key: Active: Compounds with an IC50 value less than 30 μM were deemed to be active.; Not Active: Compounds with an IC50 value less than 30 μM were deemed to be active; details: Human AML MV4-11 cells, 3 h incubation
In short: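 MV4-11 cells (2.5×10^4) treated with compound or 0.1% DMSO for 3 h at 37 °C. c-myc mRNA measured by RT real-time PCR duplexed with cyclophilin. IC50 from dose–response curve.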

ApoA-I mRNA = assay: Up-regulation of hApoA-1 mRNA transcription in Huh7 cells; type: cell-based, human; parameters: key: Active: Compounds with an EC170 value less than 30 μM were deemed to be active; details: 48 h treatment, ApoA-I mRNA by real-time PCR, Active = EC170 less than 30 μM
In short: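 Huh7 cells treated with compound for 48 h. ApoA-I mRNA was then quantified in captured mRNA by one-step real-time RT-PCR. Fold induction calculated from Ct values relative to the matching DMSO control; EC170 is the concentration for 170% of control expression.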

SMILES	Cell Proliferation activity (IC50 <30 μM) [1]	FRET activity (IC50 <30 μM) BRD2(2) [2]	IL-6 activity (IC50 <30 μM) (hIL-6 mRNA)	melting point [°C]	FRET activity (IC50 <30 μM) BRD4(1) [3]	c-myc activity (IC50 <30 μM) (c-myc)	ApoA-1 activity (EC170 <30 μM) (ApoA-I mRNA)
COc1ccc(-c2cn(Cc3ccccc3)c(=O)c3ccccc23)cc1OC [Example 166, 2-Benzyl-4-(3,4-dimethoxyphenyl)isoquinolin-1(2H)-one]	–	Not Active	–	174 to 176	Active	–	–
Cc1noc(C)c1-c1cn(Cc2ccccc2)c(=O)c2cccnc12 [Example 173, 6-Benzyl-8-(3,5-dimethylisoxazol-4-yl)-1,6-naphthyridin-5(6H)-one]	–	Active	–	192 to 195	Active	–	–
COc1cc(Nc2nn(Cc3ccccc3)c(=O)c3ccccc23)cc(OC)c1OC [Example 171, 2-Benzyl-4-(3,4,5-trimethoxyphenylamino)-2H-phthalazin-1-one]	Active	Active	Active	206 to 207	Active	Active	–
Cc1noc(C)c1-c1cn(Cc2ccccc2)c(=O)c2ccncc12 [Example 176, 2-Benzyl-4-(3,5-dimethylisoxazol-4-yl)-2,6-naphthyridin-1(2H)-one]	–	Active	–	159 to 161	Active	–	–
Cc1noc(C)c1-c1cn(Cc2ccccc2)c(=O)c2cnccc12 [Example 175, 2-Benzyl-4-(3,5-dimethylisoxazol-4-yl)-2,7-naphthyridin-1(2H)-one]	–	Active	–	174 to 177	Active	–	–
COc1cc(Nc2cn(Cc3ccccc3)c(=O)c3ccccc23)cc(OC)c1OC [Example 172, 2-Benzyl-4-((3,4,5-trimethoxyphenyl)amino)isoquinolin-1(2H)-one]	Active	Active	Active	162 to 164	Active	Not Active	–
COc1cccc(Cn2nc(-c3cc(OC)c(OC)c(OC)c3)ccc2=O)c1 [Example 119, 2-(3-Methoxybenzyl)-6-(3,4,5-trimethoxyphenyl)pyridazin-3(2H)-one]	Active	Active	Active	–	Active	Not Active	Active
COc1cc(-c2ccc(=O)n(Cc3ccccc3)n2)ccc1O [Example 83, 2-Benzyl-6-(4-hydroxy-3-methoxyphenyl)pyridazin-3(2H)-one]	Active	Active	Active	–	Active	Not Active	Active
Cc1noc(C)c1-c1ccc(=O)n(Cc2ccc(Cl)cn2)c1 [Example 55, 1-((5-Chloropyridin-2-yl)methyl)-5-(3,5-dimethylisoxazol-4-yl)pyridin-2(1H)-one]	Active	Active	Active	–	Active	Active	Active
Cc1noc(C)c1-c1ccc(=O)n(Cc2cccc(C(F)F)c2)c1 [Example 50, 1-(3-(Difluoromethyl)benzyl)-5-(3,5-dimethylisoxazol-4-yl)pyridin-2(1H)-one]	Active	Active	Active	–	Active	Active	Active

Further lines, with some results ahead:

Cell Proliferation activity (IC50 <30 μM) [1]	FRET activity (IC50 <30 μM) BRD2(2) [2]	IL-6 activity (IC50 <30 μM) (hIL-6 mRNA)	melting point [°C]	FRET activity (IC50 <30 μM) BRD4(1) [3]	c-myc activity (IC50 <30 μM) (c-myc)	SMILES	ApoA-1 activity (EC170 <30 μM) (ApoA-I mRNA)
Active	Active	Active	139 to 141	Active	Not Active	Cc1noc(C)c1-c1cn(Cc2ccccc2)c(=O)c2ccccc12 [Example 167, 2-Benzyl-4-(3,5-dimethylisoxazol-4-yl)isoquinolin-1(2H)-one]	–
–	Active	–	168 to 170	Active	–	Cc1noc(C)c1-c1cn(Cc2ccccc2)c(=O)c2ncccc12 [Example 174, 7-Benzyl-5-(3,5-dimethylisoxazol-4-yl)-1,7-naphthyridin-8(7H)-one]	–
Active	Active	Active	197 to 200	Active	Active	COc1cc(-c2nn(Cc3ccccc3)c(=O)c3ccccc23)ccc1O [Example 165, 2-Benzyl-4-(4-hydroxy-3-methoxyphenyl)-2H-phthalazin-1-one]	–
Active	Active	Active	165 to 167	Active	Active	COc1cc(-c2cn(Cc3ccccc3)c(=O)c3ccccc23)ccc1O [Example 169, 2-Benzyl-4-(4-hydroxy-3-methoxyphenyl)isoquinolin-1(2H)-one]	–
Active	Active	Active	–	Active	Active	Cc1noc(C)c1-c1ccc(=O)n(Cc2ccc(F)cc2)c1 [Example 132, 5-(3,5-Dimethylisoxazol-4-yl)-1-(4-fluorobenzyl)pyridin-2(1H)-one]	Active
Active	Active	Not Active	166 to 168	Not Active	Not Active	COc1cc(-c2cn(Cc3ccccc3)c(=O)c3ccccc23)cc(OC)c1OC [Example 168, 2-Benzyl-4-(3,4,5-trimethoxyphenyl)isoquinolin-1(2H)-one]	–
